The values that follow come from patent publication US20240360082A1, “SUBSTITUTED PYRIDONE COMPOUNDS USEFUL TO TREAT ORTH[…]” (priority 2021, published 2024).

The structures appear in SMILES notation.

Sequence of influenza A virus minigenome (PB2, PB1, PA, NP proteins) (P04665 whole entry): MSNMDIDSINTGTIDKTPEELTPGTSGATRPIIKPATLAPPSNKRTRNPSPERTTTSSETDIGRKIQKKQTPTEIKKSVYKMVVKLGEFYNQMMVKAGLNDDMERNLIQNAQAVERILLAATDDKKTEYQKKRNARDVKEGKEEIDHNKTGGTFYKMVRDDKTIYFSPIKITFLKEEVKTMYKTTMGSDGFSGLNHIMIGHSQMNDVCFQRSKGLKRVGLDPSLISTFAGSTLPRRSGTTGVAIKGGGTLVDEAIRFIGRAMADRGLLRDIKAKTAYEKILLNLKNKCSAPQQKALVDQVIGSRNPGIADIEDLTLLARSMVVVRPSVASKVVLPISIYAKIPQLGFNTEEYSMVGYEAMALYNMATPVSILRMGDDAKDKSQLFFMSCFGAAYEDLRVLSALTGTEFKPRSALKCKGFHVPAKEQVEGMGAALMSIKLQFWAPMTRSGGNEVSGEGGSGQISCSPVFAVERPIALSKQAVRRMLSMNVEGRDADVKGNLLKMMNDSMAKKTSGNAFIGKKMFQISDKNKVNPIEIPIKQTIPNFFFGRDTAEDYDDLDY

The assay concerns the target influenza A virus minigenome (PB2, PB1, PA, NP proteins) (UniProt P04665). It counts as cell-based. To be noted: read-out: RNP_Hubei B.
For `COc1ccc(COc2ccc(-c3cc(C(N)=O)c(=O)[nH]c3C(F)(F)F)cc2)cc1` [Example 59, 5-(4-((4-methoxybenzyl)oxy)phenyl)-2-oxo-6-(trifluoromethyl)-1,2-dihydropyridine-3-carboxamide], the IC50 is 5 to 10 µM.

As to `CN(C)C(=O)c1ccc(COc2ccc(-c3cc(C(N)=O)c(=O)[nH]c3C(F)(F)F)cc2)cc1` [Example 60, 5-(4-((4-(dimethylcarbamoyl)benzyl)oxy)phenyl)-2-oxo-6-(trifluoromethyl)-1,2-dihydropyridine-3-carboxamide], the IC50 was in the range of 25 to 50 µM.

Take `CCCNc1cccc(COc2ccc(-c3cc(C(N)=O)c(=O)[nH]c3C(F)(F)F)cc2)c1` [Example 66, 2-oxo-5-(4-((3-(propylamino)benzyl)oxy)phenyl)-6-(trifluoromethyl)-1,2-dihydropyridine-3-carboxamide]: the IC50 is 0.1 to 1 µM.

As for `NC(=O)c1cc(-c2ccc(OCc3ccncc3)cc2)c(C(F)(F)F)[nH]c1=O` [Example 70, 2-oxo-5-(4-(pyridin-4-ylmethoxy)phenyl)-6-(trifluoromethyl)-1,2-dihydropyridine-3-carboxamide], the IC50 lay within 25 to 50 µM.

Take `NC(=O)c1cc(-c2ccc(OCc3ccc4nonc4c3)cc2)c(C(F)(F)F)[nH]c1=O` [Example 71, 5-(4-(benzo[c][1,2,5]oxadiazol-5-ylmethoxy)phenyl)-2-oxo-6-(trifluoromethyl)-1,2-dihydropyridine-3-carboxamide]: the IC50 is 25 to 50 µM.

Regarding `NC(=O)c1cc(-c2ccc(OCc3cccnc3)cc2)c(C(F)(F)F)[nH]c1=O` [Example 72, 2-oxo-5-(4-(pyridin-3-ylmethoxy)phenyl)-6-(trifluoromethyl)-1,2-dihydropyridine-3-carboxamide], the IC50 lay in the range of 25 to 50 µM.

In the case of `NC(=O)c1cc(-c2ccc(OCc3ccccn3)cc2)c(C(F)(F)F)[nH]c1=O` [Example 73, 2-oxo-5-(4-(pyridin-2-ylmethoxy)phenyl)-6-(trifluoromethyl)-1,2-dihydropyridine-3-carboxamide], the IC50 lay in the range of 25 to 50 µM.

Turning to `NC(=O)c1cc(-c2ccc(OCc3cccc4nonc34)cc2)c(C(F)(F)F)[nH]c1=O` [Example 74, 5-(4-(benzo[c][1,2,5]oxadiazol-4-ylmethoxy)phenyl)-2-oxo-6-(trifluoromethyl)-1,2-dihydropyridine-3-carboxamide], the IC50 was 10 to 25 µM.

In the case of `CS(=O)(=O)c1cccc(COc2ccc(-c3cc(C(N)=O)c(=O)[nH]c3C(F)(F)F)cc2)c1` [Example 75, 5-(4-((3-(methylsulfonyl)benzyl)oxy)phenyl)-2-oxo-6-(trifluoromethyl)-1,2-dihydropyridine-3-carboxamide], the IC50 lay within 25 to 50 µM.

Consider `NC(=O)c1cc(-c2ccc(OCc3ccccc3[N+](=O)[O-])cc2)c(C(F)(F)F)[nH]c1=O` [Example 76, 5-(4-((2-nitrobenzyl)oxy)phenyl)-2-oxo-6-(trifluoromethyl)-1,2-dihydropyridine-3-carboxamide], for which the IC50 lay in the range of 10 to 25 µM.

On to `N#Cc1ccc(COc2ccc(-c3cc(C(N)=O)c(=O)[nH]c3C(F)(F)F)cc2)cc1` [Example 77, 5-(4-((4-cyanobenzyl)oxy)phenyl)-2-oxo-6-(trifluoromethyl)-1,2-dihydropyridine-3-carboxamide], for which the IC50 was in the range of 10 to 25 µM.

Regarding `N#Cc1cccc(COc2ccc(-c3cc(C(N)=O)c(=O)[nH]c3C(F)(F)F)cc2)c1` [Example 78, 5-(4-((3-cyanobenzyl)oxy)phenyl)-2-oxo-6-(trifluoromethyl)-1,2-dihydropyridine-3-carboxamide], the IC50 fell in the range of 25 to 50 µM.

Take `NC(=O)c1cc(-c2ccc(OCc3cccc(C(F)(F)F)c3)cc2)c(C(F)(F)F)[nH]c1=O` [Example 79, 2-oxo-6-(trifluoromethyl)-5-(4-((3-(trifluoromethyl)benzyl)oxy)phenyl)-1,2-dihydropyridine-3-carboxamide]: the IC50 is 5 to 10 µM.

`NC(=O)c1cc(-c2ccc(OCc3cncnc3)cc2)c(C(F)(F)F)[nH]c1=O` [Example 82, 2-oxo-5-(4-(pyrimidin-5-ylmethoxy)phenyl)-6-(trifluoromethyl)-1,2-dihydropyridine-3-carboxamide]: the IC50 lay in the range of 25 to 50 µM.

As for `CN1CCC(COc2ccc(-c3cc(C(N)=O)c(=O)[nH]c3C(F)(F)F)cc2)CC1` [Example 83, 5-(4-((1-methylpiperidin-4-yl)methoxy)phenyl)-2-oxo-6-(trifluoromethyl)-1,2-dihydropyridine-3-carboxamide], the IC50 lay in the range of 25 to 50 µM.

Consider `NC(=O)c1cc(-c2ccc(OCc3ccnnc3)cc2)c(C(F)(F)F)[nH]c1=O` [Example 84, 2-oxo-5-(4-(pyridazin-4-ylmethoxy)phenyl)-6-(trifluoromethyl)-1,2-dihydropyridine-3-carboxamide], for which the IC50 lay within 25 to 50 µM.

Turning to `NC(=O)c1cc(-c2ccc(OCc3ccc4cn[nH]c4c3)cc2)c(C(F)(F)F)[nH]c1=O` [Example 85, 5-(4-((1H-indazol-6-yl)methoxy)phenyl)-2-oxo-6-(trifluoromethyl)-1,2-dihydropyridine-3-carboxamide], the IC50 lay within 25 to 50 µM.

In the case of `NC(=O)c1cc(-c2ccc(OCc3ccc4cc[nH]c4c3)cc2)c(C(F)(F)F)[nH]c1=O` [Example 86, 5-(4-((1H-indol-6-yl)methoxy)phenyl)-2-oxo-6-(trifluoromethyl)-1,2-dihydropyridine-3-carboxamide], the IC50 lay in the range of 5 to 10 µM.

Regarding `NC(=O)c1cc(-c2ccc(OCc3ccc(C(F)(F)F)cc3)cc2)c(C(F)(F)F)[nH]c1=O` [Example 87, 2-oxo-6-(trifluoromethyl)-5-(4-((4-(trifluoromethyl)benzyl)oxy)phenyl)-1,2-dihydropyridine-3-carboxamide], the IC50 fell in the range of 1 to 5 µM.

As to `NC(=O)c1cc(-c2ccc(OCC3CNC(=O)C3)cc2)c(C(F)(F)F)[nH]c1=O` (centres unmarked) [Example 88, 2-oxo-5-(4-((5-oxopyrrolidin-3-yl)methoxy)phenyl)-6-(trifluoromethyl)-1,2-dihydropyridine-3-carboxamide], the IC50 was 5 to 10 µM.

Consider `N#Cc1ccccc1COc1ccc(-c2cc(C(N)=O)c(=O)[nH]c2C(F)(F)F)cc1` [Example 89, 5-(4-((2-cyanobenzyl)oxy)phenyl)-2-oxo-6-(trifluoromethyl)-1,2-dihydropyridine-3-carboxamide], for which the IC50 is 25 to 50 µM.

For the compound `NC(=O)c1cc(-c2ccc(OCc3ccn4nnnc4c3)cc2)c(C(F)(F)F)[nH]c1=O` [Example 90, 2-oxo-5-(4-(tetrazolo[1,5-a]pyridin-7-ylmethoxy)phenyl)-6-(trifluoromethyl)-1,2-dihydropyridine-3-carboxamide], the IC50 was 25 to 50 µM.

Take `NC(=O)c1cc(-c2ccc(OCc3ccn4ccnc4c3)cc2)c(C(F)(F)F)[nH]c1=O` [Example 91, 5-(4-(imidazo[1,2-a]pyridin-7-ylmethoxy)phenyl)-2-oxo-6-(trifluoromethyl)-1,2-dihydropyridine-3-carboxamide]: the IC50 was in the range of 25 to 50 µM.

`CN1CCCC(COc2ccc(-c3cc(C(N)=O)c(=O)[nH]c3C(F)(F)F)cc2)C1` (centres unmarked) [Example 92, 5-(4-((1-methylpiperidin-3-yl)methoxy)phenyl)-2-oxo-6-(trifluoromethyl)-1,2-dihydropyridine-3-carboxamide]: the IC50 was 25 to 50 µM.

Turning to `NC(=O)c1cc(-c2ccc(OCc3ccc(F)c([N+](=O)[O-])c3)cc2)c(C(F)(F)F)[nH]c1=O` [Example 93, 5-(4-((4-fluoro-3-nitrobenzyl)oxy)phenyl)-2-oxo-6-(trifluoromethyl)-1,2-dihydropyridine-3-carboxamide], the IC50 was 10 to 25 µM.

As to `NC(=O)c1cc(-c2ccc(OCc3ccc4no[n+]([O-])c4c3)cc2)c(C(F)(F)F)[nH]c1=O` [Example 94], the IC50 was 25 to 50 µM.

As to `N#Cc1cncc(COc2ccc(-c3cc(C(N)=O)c(=O)[nH]c3C(F)(F)F)cc2)c1` [Example 99, 5-(4-((5-cyanopyridin-3-yl)methoxy)phenyl)-2-oxo-6-(trifluoromethyl)-1,2-dihydropyridine-3-carboxamide], the IC50 is 25 to 50 µM.

With `NC(=O)c1cc(-c2ccc(OCC3CCCOC3)cc2)c(C(F)(F)F)[nH]c1=O` (centres unmarked) [Example 102, 2-oxo-5-(4-((tetrahydro-2H-pyran-3-yl)methoxy)phenyl)-6-(trifluoromethyl)-1,2-dihydropyridine-3-carboxamide], the IC50 was 5 to 10 µM.

For the compound `Cc1noc(C)c1COc1ccc(-c2cc(C(N)=O)c(=O)[nH]c2C(F)(F)F)cc1` [Example 107, 5-(4-((3,5-dimethylisoxazol-4-yl)methoxy)phenyl)-2-oxo-6-(trifluoromethyl)-1,2-dihydropyridine-3-carboxamide], the IC50 was 25 to 50 µM.

For `Cn1cc(COc2ccc(-c3cc(C(N)=O)c(=O)[nH]c3C(F)(F)F)cc2)c(C(F)(F)F)n1` [Example 109, 5-(4-((1-methyl-3-(trifluoromethyl)-1H-pyrazol-4-yl)methoxy)phenyl)-2-oxo-6-(trifluoromethyl)-1,2-dihydropyridine-3-carboxamide], the IC50 was in the range of 25 to 50 µM.

On to `NC(=O)c1cc(-c2ccc(OCc3ccsc3)cc2)c(C(F)(F)F)[nH]c1=O` [Example 110, 2-oxo-5-(4-(thiophen-3-ylmethoxy)phenyl)-6-(trifluoromethyl)-1,2-dihydropyridine-3-carboxamide], for which the IC50 lay within 5 to 10 µM.

`Cn1nccc1COc1ccc(-c2cc(C(N)=O)c(=O)[nH]c2C(F)(F)F)cc1` [Example 126, 5-(4-((1-methyl-1H-pyrazol-5-yl)methoxy)phenyl)-2-oxo-6-(trifluoromethyl)-1,2-dihydropyridine-3-carboxamide]: the IC50 fell in the range of 25 to 50 µM.

Regarding `NC(=O)c1cc(-c2ccc(OCc3cncs3)cc2)c(C(F)(F)F)[nH]c1=O` [Example 134, 2-oxo-5-(4-(thiazol-5-ylmethoxy)phenyl)-6-(trifluoromethyl)-1,2-dihydropyridine-3-carboxamide], the IC50 was 25 to 50 µM.

As to `NC(=O)c1cc(-c2ccc(OCc3nccs3)cc2)c(C(F)(F)F)[nH]c1=O` [Example 143, 2-oxo-5-(4-(thiazol-2-ylmethoxy)phenyl)-6-(trifluoromethyl)-1,2-dihydropyridine-3-carboxamide], the IC50 lay within 10 to 25 µM.

With `NC(=O)c1cc(-c2ccc(OCc3cnc(NCC4CC4)nc3)cc2)c(C(F)(F)F)[nH]c1=O` [Example 161], the IC50 was 10 to 25 µM.
